SMILES strings stand for the structures. ± gives the expanded uncertainty stated by the source.

For the first series the following is noted: Crystal 1; DTA.
With `O=C[C@H](O)[C@@H](O)[C@H](O)[C@H](O)CO` [D-glucose], the Normal melting temperature stood at 162.10 ± 2 °C.

Regarding `OC[C@@H](O)[C@@H](O)[C@H](O)[C@@H](O)CO` [D-sorbitol], the Normal melting temperature turned out to be 99.70 ± 2 °C. Take `Cn1c(=O)c2c(ncn2C)n(C)c1=O` [caffeine]: the Normal melting temperature came to 236.20 ± 2 °C.

Take `OC[C@H]1O[C@@](CO)(O[C@H]2O[C@H](CO)[C@@H](O)[C@H](O)[C@H]2O)[C@@H](O)[C@@H]1O` [D-sucrose]: the Normal melting temperature worked out at 190.90 ± 2 °C. For `NCC(=O)O` [2-aminoacetic acid], the Normal melting temperature is 254.70 ± 2 °C.

Still in this series, the particulars now being: Crystal 2; DSC.
For the compound `Cn1c(=O)c2c(ncn2C)n(C)c1=O` [caffeine], the Triple point temperature is on record as 432.55 ± 6 K.

These data come from the NIST ThermoML archive (doi:10.1016/j.tca.2017.12.015).
